Our source for the GI50 and TGI values is PubChem BioAssay (NCI).

The structures appear in SMILES notation.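 Results reflect a 48-hour exposure of cells in 96-well plates to compound at five concentrations. Abbreviation: GI50, concentration required for 50% inhibition of growth. The concentration for full growth arrest is given as TGI.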 Bounds are passed on as bounds.

Test systems include OVCAR-4 ovarian; NCI-H23 lung; HL-60(TB) leukemia; PC-3 prostate; CAKI-1 renal; NCI-H226 lung; IGROV1 ovarian; OVCAR-8 ovarian; NCI/ADR-RES ovarian; HOP-92 NSCLC.
Holding throughout (experiment): NCI anticancer screen, dose series, 48 h

On to `COC(=O)[C@]12CC[C@@H](C)[C@H](C)[C@@H]1C1=CC[C@@H]3[C@@]4(C)C[C@@H](OC(C)=O)[C@H](OC(C)=O)[C@@](C)(COC(C)=O)[C@@H]4[C@H](O)C[C@@]3(C)[C@]1(C)CC2`, for which the GI50 was 3.21 µM in the assay on OVCAR-4 ovarian; 2.25 µM in the assay with NCI-H23 lung; 0.59 µM with HL-60(TB) leukemia; 0.535 µM in the assay on PC-3 prostate; 0.93 µM with CAKI-1 renal; 5.09 µM with NCI-H226 lung. Besides, the GI50 with IGROV1 ovarian is 2.17 µM; with OVCAR-8 ovarian it was 3.15 µM; in the assay on NCI/ADR-RES ovarian, 3.16 µM; in the assay with HOP-92 NSCLC, 3.9 µM. Also, the TGI in the assay with OVCAR-4 ovarian was over 100 µM; in the assay on NCI-H23 lung, over 100 µM; in the assay on HL-60(TB) leukemia, 11.4 µM; in the assay with PC-3 prostate it was over 100 µM; in the assay on CAKI-1 renal, over 100 µM; with NCI-H226 lung, over 100 µM. Further, the TGI in the assay on IGROV1 ovarian, in the assay with OVCAR-8 ovarian, in the assay on NCI/ADR-RES ovarian and in the assay on HOP-92 NSCLC was over 100 µM throughout.

In the case of `COc1cc(/C=N/NC(=O)c2cnn3c2NC(c2ccccc2)C3)ccc1OCc1ccccc1` (stereo not given), the GI50 is 1.2 µM in the assay on OVCAR-4 ovarian; 1.2 µM in the assay on NCI-H23 lung; 0.328 µM in the assay on HL-60(TB) leukemia; 0.967 µM in the assay with PC-3 prostate; 0.597 µM with CAKI-1 renal; 2.17 µM in the assay with NCI-H226 lung. Also, the GI50 with IGROV1 ovarian is 0.992 µM; with OVCAR-8 ovarian, 2.15 µM; in the assay with NCI/ADR-RES ovarian it was 1.51 µM; in the assay with HOP-92 NSCLC, 1.48 µM. Further, the TGI with OVCAR-4 ovarian was found to be 3.08 µM; with NCI-H23 lung it was 6.12 µM; in the assay on HL-60(TB) leukemia it was 7.54 µM; in the assay with PC-3 prostate, 3.23 µM; in the assay with CAKI-1 renal it was 3.99 µM; with NCI-H226 lung it was 21.8 µM. Further, the TGI is 7.26 µM in the assay with IGROV1 ovarian, 9.54 µM with OVCAR-8 ovarian, 10.9 µM in the assay on NCI/ADR-RES ovarian and 5.77 µM with HOP-92 NSCLC.

For the compound `O=C1c2ccccc2-c2cn(Cc3ccccc3)c3cccc(c23)C1c1cccnc1` (stereo not given), the GI50 in the assay with OVCAR-4 ovarian was 6.15 µM; in the assay on NCI-H23 lung it was 1.74 µM; with HL-60(TB) leukemia, 2.4 µM; in the assay on PC-3 prostate, 5.94 µM; in the assay with CAKI-1 renal, 2.74 µM; in the assay on NCI-H226 lung it was over 50 µM. Moreover, the GI50 is 3.41 µM in the assay with IGROV1 ovarian, 9.3 µM with OVCAR-8 ovarian, 1.97 µM with NCI/ADR-RES ovarian and 2.74 µM in the assay on HOP-92 NSCLC. Moreover, the TGI with OVCAR-4 ovarian was over 50 µM; with NCI-H23 lung, over 50 µM; in the assay on HL-60(TB) leukemia, 19.5 µM; in the assay on PC-3 prostate, over 50 µM; in the assay on CAKI-1 renal, over 50 µM; with NCI-H226 lung, over 50 µM. Moreover, the TGI in the assay with IGROV1 ovarian, with OVCAR-8 ovarian, in the assay with NCI/ADR-RES ovarian and in the assay on HOP-92 NSCLC was over 50 µM throughout.

Turning to `CC/C(=C/c1ccc(OC)cc1)[N+](=O)[O-]`, the GI50 in the assay on OVCAR-4 ovarian is 3.15 µM; in the assay on NCI-H23 lung, 2.15 µM; in the assay with HL-60(TB) leukemia, 1.89 µM; in the assay with PC-3 prostate, 1.98 µM; in the assay with CAKI-1 renal, 1.67 µM; in the assay with NCI-H226 lung it was 2.07 µM. Moreover, the GI50 in the assay with IGROV1 ovarian is 2.82 µM; in the assay with OVCAR-8 ovarian, 2.23 µM; in the assay on NCI/ADR-RES ovarian, 3.13 µM; in the assay with HOP-92 NSCLC it was 1.74 µM. Further, the TGI in the assay on OVCAR-4 ovarian came out at 12.1 µM; in the assay on NCI-H23 lung, 5.74 µM; in the assay on HL-60(TB) leukemia, 5.47 µM; in the assay on PC-3 prostate it was 3.87 µM; in the assay on CAKI-1 renal it was 3.33 µM; with NCI-H226 lung it was 3.86 µM. For the same compound, the TGI in the assay with IGROV1 ovarian turned out to be 8.16 µM; in the assay on OVCAR-8 ovarian, 4.98 µM; in the assay on NCI/ADR-RES ovarian, 11.5 µM; in the assay with HOP-92 NSCLC it was 3.43 µM.

For the compound `COc1cc(C(=O)/C=C/c2c[nH]c3ccccc23)cc(OC)c1OC`, the GI50 is 0.684 µM with OVCAR-4 ovarian; 0.0602 µM in the assay on NCI-H23 lung; under 0.0145 µM in the assay with HL-60(TB) leukemia; under 0.0212 µM in the assay on PC-3 prostate; under 0.0193 µM in the assay on CAKI-1 renal; 0.397 µM in the assay with NCI-H226 lung. Further, the GI50 was 0.0713 µM in the assay on IGROV1 ovarian, 0.037 µM in the assay with OVCAR-8 ovarian, under 0.0144 µM with NCI/ADR-RES ovarian and 0.0269 µM with HOP-92 NSCLC. Moreover, the TGI in the assay with OVCAR-4 ovarian was 43.1 µM; in the assay on NCI-H23 lung it was 45.4 µM; in the assay on HL-60(TB) leukemia, 0.0422 µM; with PC-3 prostate, 27.9 µM; with CAKI-1 renal, 29.8 µM; with NCI-H226 lung it was 26.8 µM. Moreover, the TGI with IGROV1 ovarian was determined as 25.3 µM; in the assay with OVCAR-8 ovarian, 15.6 µM; in the assay on NCI/ADR-RES ovarian, 33.6 µM; in the assay on HOP-92 NSCLC it was 6.46 µM.

Take `O=C1c2ccccc2C(=O)c2c1ccc1c3ccccc3n(-c3ccccc3)c21`: the TGI in the assay on OVCAR-4 ovarian was 33.5 µM; in the assay with NCI-H23 lung, 34 µM; in the assay on HL-60(TB) leukemia, 8.47 µM; in the assay on PC-3 prostate it was over 100 µM; with CAKI-1 renal, 35.1 µM; with NCI-H226 lung, 44.1 µM. Further, the TGI with IGROV1 ovarian was 41 µM; in the assay on OVCAR-8 ovarian it was 44.8 µM; with NCI/ADR-RES ovarian, over 100 µM; in the assay on HOP-92 NSCLC, 11.7 µM.

Regarding `N#Cc1cnn(C(=O)c2nn(-c3ccc(Cl)cc3)cc2O)c1N`, the GI50 in the assay with OVCAR-4 ovarian is 0.456 µM; with NCI-H23 lung, 0.371 µM; with HL-60(TB) leukemia it was 0.354 µM; with PC-3 prostate it was 0.322 µM; with CAKI-1 renal it was 0.259 µM; in the assay on NCI-H226 lung it was 0.349 µM. In addition, the GI50 with IGROV1 ovarian is 0.365 µM; in the assay on OVCAR-8 ovarian it was 0.474 µM; in the assay on NCI/ADR-RES ovarian, 0.401 µM; in the assay on HOP-92 NSCLC, 0.405 µM. The TGI with OVCAR-4 ovarian stood at 37.4 µM; with NCI-H23 lung, 15.1 µM; with HL-60(TB) leukemia, 2.27 µM; with PC-3 prostate, 7.28 µM; in the assay on CAKI-1 renal it was 1.47 µM; in the assay with NCI-H226 lung, 7.45 µM. Besides, the TGI in the assay on IGROV1 ovarian is 12.7 µM; in the assay with OVCAR-8 ovarian, over 44.4 µM; in the assay on NCI/ADR-RES ovarian, 8.78 µM; in the assay on HOP-92 NSCLC, 27.3 µM.
